Legend:
laboratory-adapted virus = test: 48-week resistance selection study and site-directed mutagenesis in vitro; type: cell-based, HIV
Description: A 48-week resistance selection study was performed by increasing the concentrations of TMB-607 against a laboratory-adapted virus in vitro.

PI-resistant strains = test: cross-resistance studies against 63 PI-resistant strains; type: cell-based, HIV; conditions: compared with approved protease inhibitors
HIV = conditions: cited from earlier work
solubility = type: physicochemical
HIV-1 protease = HIV-1 protease (Human immunodeficiency virus type 1 group M subtype B, UniProt P04585); type: cell-based; conditions: antiviral studies

Q: With `COC(=O)NC(C(=O)NCCCCC(CO)N(CC(C)C)S(=O)(=O)c1ccc(N)cc1)C(c1ccccc1)c1ccccc1` (stereo not drawn) [TMB-607] as the molecule, how does the “mutations selected in the protease open reading frame” value (laboratory-adapted virus; 48 weeks, increasing concentrations of TMB-607, laboratory-adapted virus in vitro) read?
A: Its value is “Four mutations in the protease open reading frame were selected”.

Q: And the “resistance conferred by single mutations” value (laboratory-adapted virus; site-directed mutagenesis, in vitro)?
A: Its value is “single mutations did not result in significant resistance”.

Q: What about the “levels of reduced susceptibility” value (PI-resistant strains) of the same molecule?
A: The value was “lower levels of reduced susceptibility than any of approved Protease inhibitors (PIs)”.

Q: And the “protein binding-adjusted antiviral activity EC50” value (HIV)?
A: Its value is 0.023 µg/mL.

Q: And the solubility (solubility)?
A: Its solubility is “poor”.

Q: And the “inhibiting the HIV-1 protease” value (HIV-1 protease)?
A: The value was “effective and selective”.

— US10369129B2, “Long acting pharmaceutical composition of protease inhibitor” (TaiMed Biologics, Inc., priority 2016, dated 2019)
